Results as given in publication PMC5378937 (The Journal of Pharmacology and Experimental Therapeutics, 2016).
Where a chain is given by its changes, count along the chain named. “Also recorded” adds a separate entry of the source. Where two headings read alike, the source gives them in different places.

Columns and labels:
5-HT3AT6'S receptors = biological target: T1, 5-HT3AT6'S receptors (Homo sapiens, UniProt P46098, T279S); assay: Two-electrode voltage clamp in oocytes expressing the 5-HT3AT6'S receptor mutant; assay type: cell-based; settings: for ΔpEC50 (ΔpIC50 for inhibitors, T6'S vs wild-type): 2 µM 5-HT; for IC50: read-out: pEC50 (pIC50 for inhibitors) at T6'S mutant (converted)
T1 construct: expressed in transfected cells; host or cells: Xenopus oocytes
T1 sequence (P46098 24-478 T279S): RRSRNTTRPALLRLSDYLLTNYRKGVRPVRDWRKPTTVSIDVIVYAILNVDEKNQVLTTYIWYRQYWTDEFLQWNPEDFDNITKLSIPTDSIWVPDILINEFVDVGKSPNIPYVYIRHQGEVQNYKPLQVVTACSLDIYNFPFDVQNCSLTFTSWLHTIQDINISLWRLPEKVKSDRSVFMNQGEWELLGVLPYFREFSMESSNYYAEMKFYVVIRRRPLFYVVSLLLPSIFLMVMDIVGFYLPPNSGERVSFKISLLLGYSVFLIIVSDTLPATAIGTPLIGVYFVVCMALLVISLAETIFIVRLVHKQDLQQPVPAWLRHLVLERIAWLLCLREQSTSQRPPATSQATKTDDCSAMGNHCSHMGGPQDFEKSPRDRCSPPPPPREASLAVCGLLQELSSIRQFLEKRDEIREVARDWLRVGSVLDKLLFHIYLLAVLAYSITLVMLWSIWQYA
Method: Microelectrodes were fabricated from borosilicate glass (GC120TF-10; Harvard Apparatus, Edenbridge, Kent, UK) using a two-stage horizontal pull (P-97; Sutter Instrument Company, Novato, CA) and filled with 3 M KCl. Pipette resistances ranged from 0.8 to 2.0 MΩ. Oocytes were placed in a perfusion chamber made from 2-mm-wide × 30-mm-long silicon tubing that was cut in half lengthways (total volume ∼0.1 ml), and were perfused with ND96 at a rate of 12 ml min^−1. Drug application was via a simple gravity-fed system calibrated to run at the same rate. […] A 3-minute wash was used between compound applications. Oils were dissolved in buffer containing 1% DMSO, freshly prepared each day, and constantly stirred during the experiments.
The effects of the compounds on 5-HT3AT6'S receptors were also evaluated. […] Parameters were incorporated into the model that defined changes in pEC50, pIC50, Max0, and pA2 values for 5-HT3AT6'S receptors. These parameters were statistically evaluated as described earlier.
Parameters were included in the model that allowed differences in agonist and inhibitory effects to be quantified and evaluated.

5-HT3 receptor [1] = biological target: T2, 5-HT3 receptor (Homo sapiens, UniProt P46098); assay: Dual application with bilobalide or diltiazem (allotopic vs syntopic inhibition), oocytes; assay type: cell-based; parameters: expressed in transfected cells; host or cells: Xenopus oocytes injected with cRNA transcribed from pGEMHE; settings: 100 µM 5-HT
T2 sequence (P46098 24-478): T1 sequence (P46098 24-478 T279S) with S256T
Method: Dual application studies were performed as previously described ([Jarvis and Thompson, 2013]). This is a simple method to determine whether two channel blockers share the same binding site (syntopic inhibition) or bind to separate locations (allotopic inhibition). […] Concentrations of the test compounds, BB and DTZ, were selected such that they caused approximately 62% inhibition when used alone. From the results of these experiments, predicted levels of inhibition were derived for both allotopic and syntopic modes of action. These predictions were compared with data obtained experimentally using the same concentrations of the inhibitors acting together. For each oocyte, the change in the amplitude of the 5-HT response over time was monitored and taken into account. Inhibition by drugs was quantified in relation to interpolated control responses for each time point.
The dual application measurements were compared statistically with allotopic and syntopic predictions using a two-way analysis of variance in which the oocyte was included as a random effect (SPSS Statistics 20; IBM, Armonk, NY). Post-hoc testing was with Dunnett’s method, comparing the measured data to each of the predictions.

5-HT3 receptor [2] = biological target: T2, 5-HT3 receptor; assay: Flow cytometry competition binding with 10 nM fluorescent granisetron (G-FL) in HEK293 cells; parameters: expressed in transfected cells; host or cells: HEK293 cells, transient transfection with pcDNA3.1 construct; settings: concentrations up to 1 mM, n = 3
Method: 5-HT3A subunit cDNA was cloned into pcDNA3.1 for expression in HEK293 cells (ThermoFisher Scientific, Waltham, MA). Cells were transiently transfected with this cDNA using polyethyleneimine (25 kDa, linear, powder; Polysciences Inc., Eppelheim, Germany). Thirty microliters of polyethyleneimine (1 mg ml^−1), 5 μg of cDNA, and 1 ml of DMEM were incubated for 10 minutes at room temperature, added dropwise to a 90-mm plate of 70–80% confluent HEK293 cells, and incubated for 2–3 days before use.
HEK293 cells expressing the 5-HT3 receptor were grown in monolayers and harvested from a 90-mm culture dish using 10 ml of Trypsin-EDTA (Sigma-Aldrich) for 10 minutes at 37°C. Digestion was terminated by the addition of 25 ml DMEM + 10% fetal bovine serum, and cells were pelleted at low speed for 2 minutes. […] Competition binding was measured by incubating HEK293 cells with different concentrations of nonlabeled ligands and 10 nM fluorescent granisetron (G-FL). […] The geometric mean was measured at each concentration of test compound and fitted to eq. 1 (see the following section) using a least-squares method (GraphPad Prism v4; GraphPad Software, La Jolla, CA).

[3] = biological target: T3, human 5-HT3 receptors (5-HT3A) (Homo sapiens, UniProt P46098); assay: Two-electrode voltage clamp of 5-HT-evoked currents in Xenopus oocytes expressing 5-HT3 receptors, nonlinear mixed-effects modeling
T3 sequence (P46098 24-478): T1 sequence (P46098 24-478 T279S) with S256T
Method: 5-HT3A subunit cDNA was cloned into pGEMHE for oocyte expression. cRNA was transcribed in vitro from a linearized plasmid cDNA template using the mMessage mMachine Ultra T7 Transcription kit (Ambion, Austin, TX). Stage V and VI oocytes were injected with 50 nl of 100–500 ng µl^−1 cRNA (5–25 ng injected), and currents were recorded 1–4 days postinjection.
Specifically, NONMEM allows the modeling of the relationship between drug and response, and importantly, the random between-oocyte variance, which is considerable. NONMEM enabled a single unified model to be created that included all electrophysiological agonist and antagonist data. […] The ability to allow for between-oocyte variance enabled raw peak currents to be analyzed, rather than normalized values. Normalization can obscure relationships between parameters, resulting in inaccurate and imprecise estimates of drug effects. Differences in peak currents and agonist potency between different oocytes were modeled with population variances (ω^2) associated with model parameters.
A structural model defined the relationship between the independent variables (i.e., agonist and antagonist concentrations) and the peak current (dependent variable).
The effect of time on the agonist response was modeled linearly as:(2) [drawing 2] where Max0 = as in eq. 1; MaxT = PRED when [A] = ∞ at time T; T = time (hours) from start of individual experiment; and nT = change in response per hour expressed as a proportion of the response at T = 0 (nT = 0 represents no change; nT = −0.1 represents a reduction of 10%, and nT = 0.1 represents an increase of 10% per hour).
The effect of the compounds on MaxT was modeled as follows:(3) [drawing 3] where MaxT = PRED when [A] = ∞ in the absence of drug D at time T (eq. 2); Max(D) = PRED when [A] = ∞ in the presence of drug D at time T; [D] = concentration of inhibitor drug; pIC50 = −log10[D] in the presence of which Max(D) = MaxT/2; and nH(D) = inhibitor Hill coefficient. (This model assumes that, when [D] = ∞, PRED = 0.)

[4] = tested on: 5-HT-induced contractions in rat trachea; assay: 5-HT-induced contraction of isolated rat trachea; settings: granisetron 10 µM
Method: The trachea was removed from male Wistar albino rats (250–350 g), cut into 2-cm lengths, and mounted on a force transducer with a resting tension of 1.0 g in a 10-ml water-jacketed organ bath containing modified Tyrode’s solution (136 mM NaCl, 5 mM KCl, 0.98 mM MgCl2, 0.36 mM NaH2PO4, 2 mM CaCl2, 11.9 mM NaHCO3, 5.5 mM glucose, pH 7.4) continuously aerated with 95% O2/5% CO2 and kept at 37°C. Contractile responses were recorded using a force transducer (model FT03; Grass Technologies, Quincy, MA) connected to a PC-based data acquisition system (Dataq, PM-1000; DATAQ Instruments Inc., Akron, OH). The experiments were conducted after an equilibration period of 60 minutes and three successive similar contractile responses. Experiments were approved by the local animal ethics committee (protocol number 00084/2014.2).

[5] = tested on: 5-HT-evoked contractions of guinea pig ileum; assay: 5-HT-evoked contraction of isolated guinea pig ileum
Method: Guinea pig ileum was obtained from adult male guinea pigs (200–300 g). The ileum was cut into 1-cm lengths and mounted longitudinally to a force transducer with a resting tension of 0.5 g in a 10-ml water-jacketed organ bath containing Krebs’ buffer (118 mM NaCl, 4.7 mM KCl, 1.2 mM MgSO4, 1.25 mM CaCl2, 11 mM glucose, 10 mM HEPES, pH 7.2) continuously aerated with 95% O2/5% CO2 and kept at 37°C. The ileum segments were allowed to equilibrate for 10 minutes before the experiments were started, and contractile responses were recorded using LabChart 6 (ADInstruments Ltd., Oxford, UK). […] Following drug applications, the organ bath was flushed twice with fresh Krebs’ solution, and the ileum was allowed to recover for 10 minutes prior to the next application. […] Experiments involving animals were approved by the University of Cambridge Animal Welfare and Ethical Review Body (reference: PHARM 004/15).

5-HT3 receptors = biological target: 5-HT3 receptors; parameters: method as in Ashoor et al., 2013; settings: ref Ashoor et al., 2013; cited from earlier work
[6] = IC50 (inhibition of 5-HT-evoked currents), wild-type, from nonlinear mixed-effects model
[7] = IC50 derived from normalized data, wild-type, normalized data instead of mixed-effects model
[8] = wild-type, population parameter estimate
[9] = wild-type, population parameter estimate, listed as Eucalyptol

Row | SMILES | Reduction of inhibitory potency compared with wild-type receptors (5-HT3AT6'S receptors) | ΔpEC50 (ΔpIC50 for inhibitors, T6'S vs wild-type) (5-HT3AT6'S receptors) | IC50 (5-HT3AT6'S receptors) | Measured dual inhibition with diltiazem compared with predictions (5-HT3 receptor [1]) | IC50 [3, 6] | IC50 [3, 7] | nH (inhibitor Hill coefficient) [3, 8] | Agonist action when applied alone (5-HT3AT6'S receptors) | Measured dual inhibition with bilobalide compared with predictions (5-HT3 receptor [1]) | Competition with G-FL binding (5-HT3 receptor [2]) | Effect on agonist (5-HT) pEC50 (interpretation of nG hypothesis test) ([3]; wild-type) | also measured
1 | CC(C)=CCCC(C)=CC=O (mixture of isomers) [citral] | approximately 2 fold | −0.36 ± 0.10 | 282 µM | no different from the allotopic predictions | 120 µM | 98 µM | 1.3 | did not evoke currents; also recorded: no agonist action | no different from the allotopic predictions | unaffected; also recorded: no competition |  | Effect on agonist (5-HT) pEC50 (interpretation of nG hypothesis test) [3]: No evidence that citral changes agonist pEC50; nH (inhibitor Hill coefficient) ([3]; wild-type, population parameter estimate, listed as Citral): 1.34 ± 0.08
2 | NCCc1c[nH]c2ccc(O)cc12 [5-HT, 5-hydroxytryptamine, reference compound] |  |  |  |  |  |  |  |  |  |  |  | Increase in 5-HT sensitivity in the T6'S mutant (5-HT3AT6'S receptors): 2 fold; ΔpEC50 (T6'S vs wild-type) (5-HT3AT6'S receptors; agonist 5-HT): 0.35 ± 0.07; 5-HT nH (agonist Hill coefficient) ([3]; wild-type): 2.94 ± 0.13; Max (maximal 5-HT peak current) [3, 8]: 4.94 ± 0.64 µA
3 | CN1C2CCCC1CC(NC(=O)c1nn(C)c3ccccc13)C2 (centres unmarked) [granisetron] |  |  |  |  |  |  |  |  |  |  |  | Effect on 5-HT-induced contractions [4]: substantially inhibited; Effect on 5-HT-evoked contractions [5]: inhibited
4 | CC1CCC(C(C)C)C(O)C1 (centres unmarked) [menthol] |  |  |  |  |  |  |  |  |  |  |  | IC50 (5-HT3 receptors): 163 µM

Now from value to compound, other results behind:

Row | Reduction of inhibitory potency compared with wild-type receptors (5-HT3AT6'S receptors) | ΔpEC50 (ΔpIC50 for inhibitors, T6'S vs wild-type) (5-HT3AT6'S receptors) | IC50 (5-HT3AT6'S receptors) | Measured dual inhibition with diltiazem compared with predictions (5-HT3 receptor [1]) | IC50 [3, 6] | IC50 [3, 7] | nH (inhibitor Hill coefficient) [3, 8] | SMILES | Agonist action when applied alone (5-HT3AT6'S receptors) | Measured dual inhibition with bilobalide compared with predictions (5-HT3 receptor [1]) | Competition with G-FL binding (5-HT3 receptor [2]) | Effect on agonist (5-HT) pEC50 (interpretation of nG hypothesis test) ([3]; wild-type) | also measured
5 | approximately 2 fold | −0.45 ± 0.22 | 724 µM | greater than the allotopic prediction | 258 µM | 174 µM | 1.0 | CC12CCC(CC1)C(C)(C)O2 [eucalyptol] | did not evoke currents; also recorded: no agonist action |  | unaffected; also recorded: no competition | Strong evidence that eucalyptol changes agonist pEC50 | Effect on 5-HT pEC50 at T6'S (5-HT3AT6'S receptors): did not alter the 5-HT pEC50; Kb [3]: 813 µM; nS (Schild coefficient) [3, 8]: 1.7; pA2 (shift in agonist pEC50) [3, 8]: 3.09; nH (inhibitor Hill coefficient) [3, 9]: 1.04 ± 0.11; nS (Schild coefficient) [3, 9]: 1.70 ± 0.24
6 | approximately 2 fold | −0.34 ± 0.04 | 309 µM | greater than the allotopic prediction | 141 µM | 83 µM | 2.2 | C=CC(C)(O)CCC=C(C)C (centres unmarked) [linalool] | did not evoke currents; also recorded: no agonist action | greater than the allotopic prediction | unaffected; also recorded: no competition | No/weak evidence that linalool changes agonist pEC50 | nH (inhibitor Hill coefficient) ([3]; wild-type, population parameter estimate, listed as Linalool): 2.19 ± 0.26
